From patent US20120010177A1, “MicroRNA Modulators and Method for Identifying And Using The Same” (The Wistar Institute / North Carolina State University, priority 2008, published 2012) come the findings set out here.

The structures appear in SMILES notation. Like-named read-outs stand apart in the source and are kept apart here.

For series [1], the system named is HEK293T (human embryonic kidney) cells. Put plainly: Cell viability assay, HEK293T cells. It is filed as cell-based. To be noted: 10 μM Compound. The text has this:
(§1) In these assays, A172 cells (glioblastoma cells) were contacted with a miR-21 inhibitor either alone or in combination with a conventional antiproliferative agent (i.e., 5-fluorouracil or curcumin). At the concentrations indicated, no toxic effects on HEK293T (human embryonic kidney) cells were observed.

Series [2] relates to A172 cells (glioblastoma cells). Put plainly: Cell viability assay, A172 cells, alone or with antiproliferative agent. To be noted: Homo sapiens, A 172. It is filed as cell-based.
Description: as §1

A further series deals with mature miR-93. Put plainly: Quantitative RT-PCR of mature miR-93. To be noted: Table 2. The series is classed as cell-based, human. The source says: (§2) UNG (Applied Biosystems). […] (Sigma).
The test system of the next series is mature miR-30. Put plainly: Quantitative RT-PCR of mature miR-30. The series is classed as cell-based, human. To be noted: Table 2.
Description: as §2

In another series the test system is mature miR-21. Put plainly: Quantitative RT-PCR of mature miR-21. The series is classed as cell-based, human. To be noted: for miR-21 RT PCR* (% Decrease as compared to DMSO control): Table 2; for mature miR-21 expression: HCT116 colon cancer cells and A172 glioblastoma cells, FIG. 6B.
Description: as §2

Series [3] deals with primary miR-21 (pri-miR-21). Put plainly: Quantitative RT-PCR of primary miR-21. The series is classed as cell-based, human. To be noted: HCT116 colon cancer cells and A172 glioblastoma cells, FIG. 6A.
Description: as §2

A further series deals with miR-21. Put plainly: High throughput primary miR-21 FLuc reporter assay (concentration-response). It is filed as cell-based, human. To be noted: read-out: AC50. The essentials: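 HeLa cells carrying a Luc-miR-21 firefly luciferase reporter were treated with compound for 48 h. miR-21 inhibition was read as increased luciferase signal. Concentration-response data were fitted with a four-parameter logistic model.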

[4] abbreviates: 10 μM Compound + 5FU 0.5 μM, read-out: Cell Viability A172 Cells, Compound + 5FU (0.5 μM).
Setting [5] is: 10 μM Compound + Curcumin 10 μM, read-out: Cell Viability A172 Cells, Compound + Curcumin (10 μM).
Where [6] appears, read: 10 μM Compound alone, read-out: Cell Viability A172 Cells, Compound.
[7] abbreviates: Homo sapiens, HeLa, 48 h, HeLa Luc-miR-21 reporter, 48-hour incubation.
Setting [8] is: Homo sapiens, Table 12 singletons.

For `COc1cc2c(cc1N)C1CC[C@]3(C)C(=O)CCC3C1CC2` (some centres unmarked) [Compound 8], the “Cell Viability HEK293T Cells” value in series [1] amounted to 89%. Besides, the viability at 10 µM was found to be 78% in series [2] (setting [4]), 57% in series [2] (setting [5]) and 100% in series [2] (setting [6]).
The matching figures for `COc1ccc2c(c1N)CCC1C2CC[C@]2(C)C(=O)CCC12` (some centres unmarked) [Compound 7]: 86%, 54%, 43% and 87%.
Regarding `C#CCNC(=O)c1ccc(NNc2ccccc2)cc1` [Compound 3], the “Cell Viability HEK293T Cells” value in series [1] was found to be 95%. In addition, the viability at 10 µM in series [2] (setting [4]) came to 52%; in series [2] (setting [5]) it was 56%; in series [2] (setting [6]), 75%. Moreover, the “mature miR-93 level, % of DMSO control” value in the series on mature miR-93 was 56%. Also, the “mature miR-30 level (% of DMSO control)” value with mature miR-30 is 85%. Further, the “miR-21 RT PCR* (% Decrease as compared to DMSO control)” value in the series on mature miR-21 turned out to be 39%.
Take `O=C1c2cc3c(cc2-c2[nH]c(=O)c4ccccc4c21)OCO3` [Compound 5]: the “Cell Viability HEK293T Cells” value in series [1] is recorded as 79%. Also, the viability at 10 µM in series [2] (setting [4]) amounted to 45%; in series [2] (setting [5]), 40%; in series [2] (setting [6]), 70%.
For `COc1cc(/C=C/C(=O)CC(=O)/C=C/c2ccc(O)c(OC)c2)ccc1O` [Curcumin, curcumin, reference compound], in the series with mature miR-21, the “mature miR-21 expression” value is listed as “increased”. In series [3], the “primary miR-21 expression” value is “increased”.
As to `Cn1c2c(c3ccccc3c1=O)C(=O)c1cc3c(cc1-2)OCO3` [Compound 4], the “Cell Viability HEK293T Cells” value in series [1] amounted to 98%. For the same compound, the viability at 10 µM was found to be 62% in series [2] (setting [4]), 54% in series [2] (setting [5]) and 66% in series [2] (setting [6]). Also, the “mature miR-93 level, % of DMSO control” value with mature miR-93 was found to be 116%. Also, the “mature miR-30 level (% of DMSO control)” value with mature miR-30 came out at 136%. In addition, in the series with mature miR-21, the “miR-21 RT PCR* (% Decrease as compared to DMSO control)” value was 12%.
On to `O=c1[nH]cc(F)c(=O)[nH]1` [Compound 5-FU, 5-fluorouracil, reference compound], for which, in the series with mature miR-21, the “mature miR-21 expression” value was “increased”. For the same compound, in series [3], the “primary miR-21 expression” value is reported as “increased”.
For `COc1ccc2c(c1[N+](=O)[O-])CCC1C2CC[C@]2(C)C(=O)CCC12` (some centres unmarked) [Compound 6], the “Cell Viability HEK293T Cells” value in series [1] is reported as 97%. Also, the viability at 10 µM in series [2] (setting [4]) was determined as 47%; in series [2] (setting [5]), 39%; in series [2] (setting [6]), 71%. In the series with mature miR-93, the “mature miR-93 level, % of DMSO control” value was 83%. The “mature miR-30 level (% of DMSO control)” value in the series with mature miR-30 was 73%. Also, the “miR-21 RT PCR* (% Decrease as compared to DMSO control)” value in the series on mature miR-21 amounted to 34%.
Regarding `C/C(CCc1ccccc1)=N\NC(=O)c1ccccc1` [Compound 222], the concentration at half-maximal activity (AC50) in the series with miR-21 (setting [7]) was 13.1 µM.
For the compound `CC(C)(C)c1ccc(-c2nc(NC(=O)CSc3ccc4ccccc4n3)ns2)cc1` [Compound 126], the concentration at half-maximal activity (AC50) with miR-21 (setting [7]) was 2.33 µM.
`COC(=O)/C(=C/c1cccc([N+](=O)[O-])c1)NC(=O)c1ccc(OC)cc1` [Compound 89]: in the series with miR-21 (HeLa Luc-miR-21 reporter, 48-hour incubation), the AC50 was 5.21 µM.
In the case of `C[C@]12CC[C@@H]3c4ccc(O)cc4CC[C@H]3[C@@H]1CCC2=O` [estrone, reference compound], in series [1], the “Cell Viability HEK293T Cells” value was found to be 85%.
For the compound `COc1cc(-c2nc3cnccn3c2Nc2ccc(C(C)C)cc2)ccc1O` [Compound 241], the AC50 in the series on miR-21 (setting [7]) was found to be 3.29 µM.
Consider `COc1ccc(C(CC(=O)Nc2ccc(C(C)=O)cc2)N2Cc3ccccc3C2=O)cc1` (centres unmarked) [Compound 289], for which the AC50 in the series on miR-21 (setting [8]) is 11.7 µM.
Take `COc1ccc(C(=O)NCCC2=CCCCC2)cc1OC1CCN(C(C)C)CC1` [Compound 117]: in the series on miR-21 (setting [7]), the AC50 was 16.5 µM.
In the case of `Cc1ccc2[nH]c3c(S)ncnc3c2c1` [Compound 264], in the series with miR-21 (setting [8]), the concentration at half-maximal activity (AC50) stood at 3.69 µM.
On to `Cc1cc(C)n2c(SCc3ccccc3Cl)nnc2n1` [Compound 52], for which the concentration at half-maximal activity (AC50) with miR-21 (setting [7]) turned out to be 16.5 µM.
Consider `CCOC(=O)c1s/c(=N/C(=O)c2c(F)cccc2F)n(C)c1C` [Compound 293], for which the AC50 with miR-21 (setting [8]) is 13.1 µM.
Consider `Cc1cc(NC(=O)CSc2nc3ccsc3c(=O)n2NC(=O)c2ccccc2)no1` [Compound 133], for which, in the series on miR-21 (setting [7]), the concentration at half-maximal activity (AC50) amounted to 5.21 µM.
Regarding `CCc1nonc1NC(=O)c1oc2cc(C)c(C)cc2c1C` [Compound 74], the AC50 with miR-21 (setting [7]) amounted to 5.85 µM.
Take `Cc1ccc(-c2nc3ccccc3o2)cc1NC(=S)NC(=O)c1cc2ccccc2o1` [Compound 258]: the concentration at half-maximal activity (AC50) with miR-21 (setting [8]) was 2.93 µM.
On to `Fc1ccccc1CSc1nnc(-c2cnccn2)n1Cc1ccco1` [Compound 54], for which the half-maximal activity concentration (AC50) in the series on miR-21 (setting [7]) was found to be 20.8 µM.
As for `O=C(CN1c2ccc(Br)cc2-c2ccccc2S1(=O)=O)N1CCCCC1` [Compound 280], the concentration at half-maximal activity (AC50) in the series on miR-21 (setting [8]) was 7.36 µM.
Take `COc1nc(Nc2cccc(C(F)(F)F)c2)nc(OC)n1` [Compound 63]: the half-maximal activity concentration (AC50) in the series on miR-21 (setting [7]) worked out at 14.7 µM.
Take `Cc1ccc2oc(=O)c(/C=C(\O)c3cccs3)nc2c1` [Compound 346]: the concentration at half-maximal activity (AC50) in the series with miR-21 (setting [8]) came to 14.7 µM.
`C[C@]12CC[C@H]3C(=CCc4cc(O)ccc43)[C@@H]1CCC2=O` [Compound 281]: in the series with miR-21 (setting [8]), the half-maximal activity concentration (AC50) is 7.36 µM.
As to `O=C(Nc1ccc(-c2nc3ccccc3[nH]2)cc1)c1ccc2c(c1)OCO2` [Compound 91], the half-maximal activity concentration (AC50) with miR-21 (setting [7]) is 6.56 µM.
On the same count and under the same terms, the figure for `C/C(=N\NC(=O)c1ccccc1)c1ccc(NC(=O)C(F)(F)F)cc1` [Compound 197] is 4.65 µM.
The same measure, in the same setting: the figure for `Cc1ccc(OCC(=O)N(Cc2ccco2)c2ccccn2)cc1` [Compound 169] is 14.7 µM.
Take `CCCNc1ncnc2c1cnn2-c1ccc(OC)cc1` [Compound 246]: the AC50 in the series on miR-21 (setting [7]) came to 0.29 µM.
With `Cc1ccc(-c2cc(C(=O)NCCc3ccccc3)c3c(-c4ccc(C)cc4)[nH]nc3c2)cc1` [Compound 110], in the series with miR-21 (setting [7]), the AC50 is 9.26 µM.
`COc1ccc(C(Nc2ccccn2)c2c(NC(=O)c3ccco3)sc(C)c2C)cc1OC` (centres unmarked) [Compound 115]: in the series on miR-21 (setting [7]), the AC50 worked out at 16.5 µM.
In the case of `Cc1ccc(/N=C(/c2cccs2)N2CCOCC2)cc1` [Compound 304], the concentration at half-maximal activity (AC50) in the series on miR-21 (setting [8]) stood at 14.7 µM.
`CNc1cc([N+](=O)[O-])ccc1/N=C/C=C(\O)c1cccs1` [Compound 290]: in the series on miR-21 (setting [8]), the AC50 turned out to be 11.7 µM.
In the case of `N#CC1=C(SCC(=O)Nc2ccccc2)NC(=O)CC1c1ccc(O)cc1` (centres unmarked) [Compound 275], in the series with miR-21 (setting [8]), the AC50 was 6.56 µM.
Same read-out and setting: in the case of `CCN(CC)CCCNC(=O)CCC(=O)Nc1ccc2nc(N3CCC(C)CC3)cc(C)c2c1` [Compound 341] it was 18.5 µM.
As for `COc1ccc(-c2csc(NC(=O)COC(=O)c3ccc(Br)o3)n2)cc1` [Compound 177], the AC50 in the series with miR-21 (setting [7]) turned out to be 2.93 µM.
Consider `C#CN/C(=N\CC=C)SCCc1ccccc1` [Compound 326], for which the AC50 in the series on miR-21 (setting [8]) was 16.5 µM.
As for `COCC1CCN(C(=O)c2oc3c(F)cccc3c2C)C1` (centres unmarked) [Compound 76], the concentration at half-maximal activity (AC50) in the series on miR-21 (setting [7]) was found to be 13.1 µM.
As for `O=C1C(Nc2ccccc2)=C2CCCC=C2N1c1ccccc1` [Compound 267], in the series with miR-21 (setting [8]), the half-maximal activity concentration (AC50) came to 4.14 µM.
As for `O=C(CSc1nnc(-c2ccc(O)cc2)o1)Nc1ccccc1Br` [Compound 123], the AC50 with miR-21 (setting [7]) amounted to 1.31 µM.
On the same count and under the same terms, the figure for `Cc1ccc(-c2nc3cnccn3c2Nc2ccccc2)o1` [Compound 243] is 16.5 µM.
With `COC(=O)C1C(=O)C=C(Nc2ccc(F)cc2F)CC1c1ccccc1` (centres unmarked) [Compound 340], the AC50 in the series with miR-21 (setting [8]) was 18.5 µM.
In the case of `COc1ccc(-c2noc(-c3nnn(-c4cc(C)ccc4C)c3N)n2)cc1` [Compound 18], the AC50 with miR-21 (setting [7]) amounted to 1.47 µM.
For the compound `COc1cccc(C(=O)NCCC2=CCCCC2)c1OC` [Compound 90], the AC50 with miR-21 (setting [7]) turned out to be 5.85 µM.
